Results published in US11352382B2, “Mito-lonidamine, compositions and methods of use” (THE MEDICAL COLLEGE OF WISCONSIN, INC., priority 2018, dated 2022).
pIC50, pKi: −log10 of the molar value. “Also recorded” adds a separate entry of the source.

How the values were obtained:
A/J mice = test: 8-week toxicology study (maximum tolerated dose, Modified Irwin Screen); format: in vivo, mouse
Source text: Maximum tolerated dose (MTD) of Mito-LON. We conducted an 8-week toxicology study to evaluate possible toxicity of Mito-LON, especially on neural and muscle cells using a Modified Irwin Screen, developed as a comprehensive observational battery to broadly screen for central nervous system (CNS) effects of agents. Modifications of this test are extensively used in the pharmaceutical industry and in academic research to identify changes in neurological function as a result of agent intoxication, neurotoxicity, or genetic manipulation. The screen used here employs 35 distinct measurements to assess sensorimotor, neurological, and autonomic nervous system function^78. The effective dose (ED) of Mito-LON is designated as 7.5 μmol/kg based on our preliminary data (FIGS. 24 & 25).

mitochondrial Complex I [1] = test: Mitochondrial complex I activity (OCR) in permeabilized H2030BrM3 cells after 24 h pretreatment; format: cell-based, human
Source text: (§1) LON and Mito-LON inhibit mitochondrial complex I activity. Mito-LON inhibited cellular respiration (oxygen consumption rate, OCR) at >100-fold lower concentration than LON in intact lung cancer cells (FIG. 9). Both basal respiration and the response to mitochondrial stressors (oligomycin, dinitrophenol) were diminished by Mito-LON (not shown). To investigate the mechanism of mitochondrial inhibition, we measured the activity of mitochondrial complexes in H2030BrM3 cells (NSCLC cell line). The cell membrane was permeabilized, and OCR was measured upon addition of substrates and inhibitors of mitochondrial complexes I-IV (FIG. 9A). These studies established the optimal use of permeabilized cells for complex activity assays.^54 Next, cells were pretreated with LON and Mito-LON for 24 h and experiments performed as in FIG. 9A. […] We hypothesize that inhibition of mitochondrial complexes I and II is the predominant mechanism for antiproliferative effects of Mito-LON on lung cancer cells.

mitochondrial Complex I [2] = test: Activity of mitochondrial complexes in permeabilized tumor cells (OCR), pancreatic cancer cells; format: cell-based, human
Description: To investigate the mechanism of mitochondrial inhibition, we measured the activity of mitochondrial complexes in tumor cells. The cell membrane was permeabilized, and OCR was measured upon addition of substrates and inhibitors of mitochondrial complexes I-II.

[3] = tested on: mitochondrial complexes I and II; test: Inhibition of mitochondrial complexes I and II, stated jointly; format: cell-based, human; conditions: for fold potency compared with LON/LDN, complexes I and II: H2030BrM3 lung cancer cells
Source text: as §1

[4] = tested on: H2030BrM3 orthotopic lung adenocarcinoma in nude mice; test: Orthotopic lung tumor mouse model; format: in vivo
Description: Inhibitory effects of Mito-LON in an orthotopic lung tumor mouse model. We conducted a pilot study using an orthotopic model of lung adenocarcinoma (H2030BrM3 cells) in nude mice. Cells (1×10^6 cells/50 μg of growth factor-reduced Matrigel in 50 μL of RPMI-1640) were injected into the lung. One week after injection, mice were treated with the same dose of LON or Mito-LON (7.5 μmol/kg), or vehicle (corn oil), by oral gavage 5 times/wk for 3 wks.

intact lung cancer cells = test: Cellular respiration (oxygen consumption rate, OCR) in intact lung cancer cells; format: cell-based, human; conditions: not shown
Source text: as §1

cytosolic Prx1 = test: Redox status of cytosolic peroxiredoxin; format: cell-based, human; conditions: lung cancer cells
Source text: (§2) Inhibition of mitochondrial respiration results in increased O2^⋅− and other oxidants.

[5] = tested on: H2030 and H2030BrM3 cells; test: Apoptosis markers in treated cells; format: cell-based, human
Source text: Mito-LON's effects on inducing apoptosis in human lung cancer cell lines and their lung-derived brain metastatic lines. Results from Mito-LON-treated H2030 and H2030BrM3 cells (FIG. 20) supports cell death induction is mainly via autophagy rather than caspase-dependent apoptosis.

mitochondrial Prx3 = test: Redox status of mitochondrial peroxiredoxin; format: cell-based, human; conditions: lung cancer cells
Source text: as §2

[6] = tested on: phosphorylated ERK and AKT in H2030BrM3 cells; test: Receptor tyrosine kinase assay and Western blots of ERK and AKT phosphorylation; format: cell-based, human
Source text: Role of HK2 and additional possible signaling events that contribute to the effects of Mito-LON. […] This could contribute to their effects as many cancers have constitutive ERK activation which promotes survival and proliferation, and ERK1 can play an important role in regulating mitochondrial activity, apoptosis, proliferation and migration. […] AKT is another pro-survival factor that is constitutively activated (phosphorylated) in many cancers.

[7] = tested on: luciferase-expressing H2030BrM3 cells in Nod/Scid mice; test: Lung cancer brain metastasis model, intra-cardiac injection, bioluminescence; format: in vivo, mouse; conditions: 7.5 μmol/kg oral gavage
Description: Mito-LON inhibits lung cancer brain metastasis in Nod/Scid mice. Preliminary experiments assessed the effect of Mito-LON, and its enhanced potency vs. LON, on brain metastasis in Nod/Scid mice in which luciferase-expressing H2030BrM3 cells were injected via intra-cardiac insertion. To ensure the accuracy of injection and precision in the quantity of the cells injected, we used high-resolution echocardiography to guide the needle into the left ventricle. In FIG. 25A, the needle's positioning is clearly discernable. Mice were imaged for firefly luciferase expression (150 μg/g D-luciferin) using an IVIS 100 imaging system at multiple time points post-injection. Regions of interest were defined manually over the brain, and LivingImage and Igor image analysis software were used to determine total photon flux. One day after engrafting the H2030BrM3 cells in arterial circulation (FIG. 19A), LON or Mito-LON (7.5 μmol/kg each) were administered by oral gavage, tumor growth was monitored by bioluminescence, and ex vivo GFP expression and H&E staining were determined at the end point. H2030BrM3 cells rapidly colonized in the cerebrum and cerebellum (FIG. 25B).

H2030BrM3 cells = test: Cell proliferation, IncuCyte Live-Cell Imaging Analyzer (cell confluence); format: cell-based; conditions: Homo sapiens, H2030-BrM3, read-out: IC50, cell proliferation
Description: In contrast, Mito-LON (1.2-2.7 μM) targets mitochondrial complexes I and II (FIG. 9); its mitochondrial effects are supported by the compartment-selective oxidation of mitochondrial Prx3 (FIG. 13). The anti-proliferative effects of Mito-LON and LON were compared in H2030BrM3 cells.

[8] = tested on: PC9BrM3 and H2030BrM3 brain metastasis lung cancer cell lines; test: Boyden chamber (transwell) invasion assay; format: cell-based; conditions: Homo sapiens, H2030-BrM3, read-out: inhibitory effect on invasion when used alone
Source text: Mito-LON inhibits migration and invasion of brain metastatic human lung cancer cells. To investigate the potential of Mito-LON and LON for lung cancer metastasis, we first tested its effects in vitro via the Boyden chamber invasion assay using PC9BrM3 and H2030BrM3 brain metastasis lung cancer cell lines.

[9] = 7.5 μmol/kg oral gavage 5 times/wk for 3 wks, nude mice

SMILES: O=C(NCCCCCCCCCC[P+](c1ccccc1)(c1ccccc1)c1ccccc1)c1nn(Cc2ccc(Cl)cc2Cl)c2ccccc12 [Mito-LON, Mito10-lonidamine]
- toxicity overall (A/J mice; doses up to 50× ED): did not show any toxicity
- body weights (and organ weights) and 35 Modified Irwin Screen metrics versus control (A/J mice; up to 50× ED, A/J mice, 8-weeks treatment): didn't observe any significant differences
- toxic effects in neural tissue and muscles by histopathology, liver function (serum AST and ALT) (A/J mice; up to 50× ED, A/J mice, 8 weeks): No toxic effects
- fold more potent than LON for complex I (mitochondrial Complex I [1]; 24 h pretreatment, FIG. 9B): 370 fold
- pKi (mitochondrial Complex I [1]; FIG. 9): 5.92
- pIC50 (mitochondrial Complex I [1]; H2030BrM3 lung cancer cells, FIG. 9, read-out: IC50, respiratory complex I): 5.92
- Complex I versus Complex II inhibition (mitochondrial Complex I [2]; FIG. 7): inhibits Complex I more potently than Complex II
- fold more potent than lonidamine in inhibiting Complex I activity of tumor cells (mitochondrial Complex I [2]; FIGS. 7 and 8): > 500 fold
- concentration that targets mitochondrial complexes I and II ([3]; FIG. 9): 1.2 to 2.7 µM
- fold potency compared with LON/LDN, complexes I and II ([3]; FIG. 9): over 100 fold
- fold potency compared with LON/LDN, complexes I and II ([3]; FIG. 9, listed as Mito-LDN): greater than 100 fold
- pIC50 ([3]; read-out: IC50, inhibition of complex I and II, pretreatment of H2030BrM3 cells): ~5.70
- reduction of lymph node metastasis [4, 9]: > 50%
- reduction of tumor progression [4, 9]: > 70%
- liver histopathology (H&E sections) ([4]; 7.5 μmol/kg oral gavage, 3 wks): no histopathologic signs of toxicity
- effective dose (ED) ([4]; designated from preliminary data (FIGS. 24 & 25)): 7.5 µmol/kg
- basal respiration and response to mitochondrial stressors (oligomycin, dinitrophenol) (intact lung cancer cells): diminished
- effect on cytosolic Prx1 (cytosolic Prx1): without significant effect
- caspase cleavage [5]: did not induce caspase cleavage
- cleaved PARP and cytochrome c levels [5]: increased levels of cleaved PARP and cytochrome c
- oxidation of mitochondrial Prx3 (mitochondrial Prx3): oxidizes mitochondrial Prx3; also recorded: pronounced oxidation
- oxidation of mitochondrial Prx3 (mitochondrial Prx3; listed as Mito-LDN): oxidizes mitochondrial Prx3
- phosphorylated AKT levels [6]: decreased phosphorylated AKT levels
- phosphorylated ERK levels ([6]; confirmed by Western blots): decreased phosphorylated ERK levels
- inhibition of brain metastasis of lung cancer cells [7]: significant efficacy in inhibiting brain metastasis
- pIC50 (H2030BrM3 cells): 6.15
- inhibition at 0.6 µM [8]: < 10%
